pIC50: −log10 of the molar value. Bridge positions count the residues as written; N and C are the ends. Square brackets hold non-standard residues; d marks the D form. Peptide text beside a SMILES is read from it. Nle = CCCC[C@H](N)C(=O)O

T1 sequence (P22001 whole entry): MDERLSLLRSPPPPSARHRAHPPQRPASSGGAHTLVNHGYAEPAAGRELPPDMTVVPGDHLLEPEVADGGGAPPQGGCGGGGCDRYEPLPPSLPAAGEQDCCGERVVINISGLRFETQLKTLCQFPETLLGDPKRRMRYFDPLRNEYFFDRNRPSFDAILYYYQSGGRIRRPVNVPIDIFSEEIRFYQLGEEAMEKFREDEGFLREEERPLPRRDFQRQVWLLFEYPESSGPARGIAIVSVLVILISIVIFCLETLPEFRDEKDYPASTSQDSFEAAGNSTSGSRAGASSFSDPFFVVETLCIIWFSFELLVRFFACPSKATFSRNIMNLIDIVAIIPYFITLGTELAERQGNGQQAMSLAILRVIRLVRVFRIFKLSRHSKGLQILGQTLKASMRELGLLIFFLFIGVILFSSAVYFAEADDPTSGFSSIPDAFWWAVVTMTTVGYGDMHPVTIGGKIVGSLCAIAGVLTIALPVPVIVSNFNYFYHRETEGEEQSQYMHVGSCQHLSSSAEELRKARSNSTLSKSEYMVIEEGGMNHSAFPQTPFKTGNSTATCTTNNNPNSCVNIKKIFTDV

This assay addresses T1, human Kv1.3 voltage-gated K+ channel (Homo sapiens, UniProt P22001).
T1 construct: host or cells: CHO-DUKX
The assay is described as follows: cell-based. The conditions noted are these: inhibition of thallium flux, CHO-DUKX cells with human Kv1.3; read-out: IC50.
Usually pIC50 stands for the IC50 on a negative log10 scale, so that one unit is a factor of ten. On to `CCCC[C@H](NC(=O)[C@@H]1CCCN1)C(=O)N[C@@H](CCC(=O)O)C(=O)N[C@@H](CCCC)C(=O)N[C@@H](CCCNC(=N)N)C(=O)N[C@H]1CSSC[C@@H]2NC(=O)[C@H](CCCCN)NC(=O)CNC(=O)[C@H](Cc3ccccc3)NC(=O)[C@H]([C@@H](C)CC)NC(=O)[C@H](CO)NC(=O)CNC(=O)[C@H]([C@@H](C)CC)NC(=O)[C@H](C)NC(=O)[C@H](C)NC(=O)[C@H](CC(C)C)NC(=O)[C@@H]3CSSC[C@@H](C(=O)N[C@@H](Cc4ccc(O)cc4)C(=O)N4CCC[C@H]4C(=O)N[C@@H](CCCNC(=N)N)C(=O)O)NC(=O)[C@H](CCCCN)NC(=O)[C@H](CSSC[C@H](NC(=O)[C@H](CCC(=O)O)NC(=O)[C@H](CCC(N)=O)NC(=O)[C@H](CO)NC(=O)[C@H](C)NC(=O)[C@H](CO)NC1=O)C(=O)N[C@@H](CCCCN)C(=O)N[C@@H](CCC(N)=O)C(=O)N[C@@H](CCCCN)C(=O)N3)NC(=O)[C@H](CCCCN)NC(=O)[C@H](CCCCN)NC(=O)[C@H](CC(N)=O)NC(=O)[C@H](CCCC)NC2=O` [Compound 139] (H-P[Nle]E[Nle]RCSASQECKQKCLAAIGSIFGKC[Nle]NKKCKCYPR-OH; disulfide 6-27, 12-32, 16-34), for which the pIC50 is 9.34.
`CCCC[C@H](NC(=O)[C@@H]1CCCN1)C(=O)N[C@@H](CCC(=O)O)C(=O)N[C@@H](CCCC)C(=O)N[C@@H](CCCNC(=N)N)C(=O)N[C@H]1CSSC[C@@H]2NC(=O)[C@H](CCCCN)NC(=O)CNC(=O)[C@H](Cc3ccccc3)NC(=O)[C@H]([C@@H](C)CC)NC(=O)[C@H](CO)NC(=O)CNC(=O)[C@H]([C@@H](C)CC)NC(=O)[C@H](C)NC(=O)[C@H](C)NC(=O)[C@H](CC(C)C)NC(=O)[C@@H]3CSSC[C@@H](C(=O)N[C@@H](Cc4ccc(O)cc4)C(=O)N4CCC[C@H]4C(=O)N[C@@H](CCCNC(=N)N)C(=O)O)NC(=O)[C@H](CCCCN)NC(=O)[C@H](CSSC[C@H](NC(=O)[C@H](CCC(=O)O)NC(=O)[C@H](C(C)C)NC(=O)[C@H](CO)NC(=O)[C@H](C)NC(=O)[C@H](CO)NC1=O)C(=O)N[C@@H](CC(C)C)C(=O)N[C@@H](CCC(N)=O)C(=O)N[C@@H](CCCCN)C(=O)N3)NC(=O)[C@H](CCCCN)NC(=O)[C@H](CCCCN)NC(=O)[C@H](CC(N)=O)NC(=O)[C@H](CCCC)NC2=O` [Compound 140] (H-P[Nle]E[Nle]RCSASVECLQKCLAAIGSIFGKC[Nle]NKKCKCYPR-OH; disulfide 6-27, 12-32, 16-34): the pIC50 was 8.45.
Turning to “H-NMDMRCSASVECKQKCLKAIGSIFGKCMNKKCKCYPRHRRK-NH2 (disulfide 6-27, 12-32, 16-34) [Compound 24]”, the pIC50 was 10.14.
For `CC[C@H](C)[C@@H]1NC(=O)[C@H](C)NC(=O)[C@H](CCCCN)NC(=O)[C@H](CC(C)C)NC(=O)[C@@H]2CSSC[C@@H](C(=O)N[C@@H](Cc3ccc(O)cc3)C(=O)N3CCC[C@H]3C(=O)N[C@@H](CCCNC(=N)N)C(=O)O)NC(=O)[C@H](CCCCN)NC(=O)[C@@H]3CSSC[C@H](NC(=O)[C@H](CCC(=O)O)NC(=O)[C@H](C(C)C)NC(=O)[C@H](CO)NC(=O)[C@H](C)NC(=O)[C@H](CO)NC(=O)[C@@H](NC(=O)[C@H](CCCNC(=N)N)NC(=O)[C@H](CCSC)NC(=O)[C@H](CC(=O)O)NC(=O)[C@H](CCSC)NC(=O)[C@@H](N)CC(N)=O)CSSC[C@H](NC(=O)[C@H](CCCCN)NC(=O)CNC(=O)[C@H](Cc4ccccc4)NC(=O)CNC(=O)[C@H](CCCNC(=N)N)NC(=O)CNC1=O)C(=O)N[C@@H](CCSC)C(=O)N[C@@H](CC(N)=O)C(=O)N[C@@H](CCCCN)C(=O)N[C@@H](CCCCN)C(=O)N3)C(=O)N[C@@H](CCCCN)C(=O)N[C@@H](CCC(N)=O)C(=O)N[C@@H](CCCCN)C(=O)N2` [Compound 4] (H-NMDMRCSASVECKQKCLKAIGRGFGKCMNKKCKCYPR-OH; disulfide 6-27, 12-32, 16-34), the negative-log IC50 (pIC50) is 9.54.

(Values after patent US11780893B2, “Kv1.3 blockers” (Zealand Pharma A/S, priority 2019, dated 2023).)
